# Reference: US12187723B2 (BRISTOL-MYERS SQUIBB COMPANY, priority 2019, dated 2025)
# pIC50: −log10 of the molar value.
# Target: T1, human TLR7 (Homo sapiens, UniProt Q9NYK1)
# T1 construct: host or cells: HEK-Blue cells
# T1 sequence (Q9NYK1 27-1049): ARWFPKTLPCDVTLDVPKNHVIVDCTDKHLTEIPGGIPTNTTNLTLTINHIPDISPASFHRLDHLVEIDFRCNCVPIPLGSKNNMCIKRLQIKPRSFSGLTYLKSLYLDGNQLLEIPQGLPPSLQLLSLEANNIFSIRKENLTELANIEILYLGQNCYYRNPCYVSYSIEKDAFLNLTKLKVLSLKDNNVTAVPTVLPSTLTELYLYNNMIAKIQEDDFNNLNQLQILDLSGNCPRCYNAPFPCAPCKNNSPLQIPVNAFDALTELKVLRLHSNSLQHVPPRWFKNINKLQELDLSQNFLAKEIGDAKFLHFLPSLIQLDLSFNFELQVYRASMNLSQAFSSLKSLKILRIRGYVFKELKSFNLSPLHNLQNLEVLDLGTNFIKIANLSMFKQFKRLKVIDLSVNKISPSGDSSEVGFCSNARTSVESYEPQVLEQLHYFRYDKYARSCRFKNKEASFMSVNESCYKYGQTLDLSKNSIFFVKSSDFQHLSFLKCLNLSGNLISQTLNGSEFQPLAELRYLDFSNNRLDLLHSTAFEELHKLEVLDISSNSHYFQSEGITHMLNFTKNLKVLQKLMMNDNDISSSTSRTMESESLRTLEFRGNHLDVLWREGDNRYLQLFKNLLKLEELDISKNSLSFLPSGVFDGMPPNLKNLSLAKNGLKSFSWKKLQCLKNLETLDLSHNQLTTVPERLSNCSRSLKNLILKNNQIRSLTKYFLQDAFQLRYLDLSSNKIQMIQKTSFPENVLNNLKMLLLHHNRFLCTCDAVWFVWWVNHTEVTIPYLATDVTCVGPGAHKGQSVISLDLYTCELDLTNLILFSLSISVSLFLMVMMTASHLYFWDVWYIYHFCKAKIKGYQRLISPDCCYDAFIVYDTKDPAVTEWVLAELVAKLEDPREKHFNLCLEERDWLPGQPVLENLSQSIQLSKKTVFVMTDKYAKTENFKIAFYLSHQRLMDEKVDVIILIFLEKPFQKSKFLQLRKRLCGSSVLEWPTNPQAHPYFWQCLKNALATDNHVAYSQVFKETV
# Assay: TLR7 inhibition reporter assay (HEK-Blue SEAP)
# Assay type: cell-based
# Details: HEK-Blue cells overexpressing human TLR7, gardiquimod 7.5 μM, 22 hour incubation
# Summary of the method: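 22 h, 37° C, 5% CO2 incubation; compounds 0.05 nM-50 μM final; TLR7 cells 15000/well, TLR8 20,000/well. Readout: SEAP via HEK-Blue Detection medium. % inhibition = signal reduction versus agonist + DMSO wells, referenced to known inhibitor.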
row,Structure (SMILES),pIC50
1,"CCC(CC)CN1CCC[C@@H](n2c(=O)[nH]c3cc(-c4cc(C)c5ncnn5c4)c(C)cc32)C1 [Example 45, (R)-1-(1-(2-ethylbutyl)piperidin-3-yl)-6-methyl-5-(8-methyl-[1,2,4]triazolo[1,5-a]pyridin-6-yl)-1,3-dihydro-2H-benzo[d]imidazol-2-one]",7.53
2,"COc1cc(-c2cc3[nH]c(=O)n([C@@H]4CCCN(C)C4)c3cc2C)cn2ncnc12 [Example 51, (R)-5-(8-methoxy-[1,2,4]triazolo[1,5-a]pyridin-6-yl)-6-methyl-1-(1-methylpiperidin-3-yl)-1,3-dihydro-2H-benzo[d]imidazol-2-one]",7.49
3,"COc1cc(-c2ccc3c(c2)[nH]c(=O)n3C2CCN(CC3CCOCC3)CC2)cn2ncnc12 [Example 78, 5-(8-methoxy-[1,2,4]triazolo[1,5-a]pyridin-6-yl)-1-(1-((tetrahydro-2H-pyran-4-yl)methyl)piperidin-4-yl)-1,3-dihydro-2H-benzo[d]imidazol-2-one]",5.95
4,"COc1cc(-c2ccc3c(c2)[nH]c(=O)n3C2CCN(C3CCOC3)CC2)cn2ncnc12 (stereo not drawn) [Example 81, 5-(8-methoxy-[1,2,4]triazolo[1,5-a]pyridin-6-yl)-1-(1-(tetrahydrofuran-3-yl)piperidin-4-yl)-1,3-dihydro-2H-benzo[d]imidazol-2-one]",5.58
5,"COc1cc(-c2cc3[nH]c(=O)n([C@H]4CC[C@@H](NC(C)C)CC4)c3cc2C)cn2ncnc12 [Example 50, 1-((1s,4s)-4-(isopropylamino)cyclohexyl)-5-(8-methoxy-[1,2,4]triazolo[1,5-a]pyridin-6-yl)-6-methyl-1,3-dihydro-2H-benzo[d]imidazol-2-one]",7.41
6,"Cc1cc2c(cc1-c1cc(C)c3ncnn3c1)[nH]c(=O)n2[C@H]1CC[C@@H](NCc2ncn(C)n2)CC1 [Example 33, 6-methyl-1-((1s,4s)-4-(((1-methyl-1H-1,2,4-triazol-3-yl)methyl)amino)cyclohexyl)-5-(8-methyl-[1,2,4]triazolo[1,5-a]pyridin-6-yl)-1,3-dihydro-2H-benzo[d]imidazol-2-one]",6.86
7,"Cc1cc2c(cc1-c1cc(C)c3ncnn3c1)[nH]c(=O)n2[C@@H]1CCCN(Cc2ncn(C)n2)C1 [Example 35, (R)-6-methyl-1-(1-((1-methyl-1H-1,2,4-triazol-3-yl)methyl)piperidin-3-yl)-5-(8-methyl-[1,2,4]triazolo[1,5-a]pyridin-6-yl)-1,3-dihydro-2H-benzo[d]imidazol-2-one]",6.14
8,"COc1cc(-c2ccc3c(c2)[nH]c(=O)n3C2CCN(CC3CCOC3)CC2)cn2ncnc12 (stereo not drawn) [Example 82, 5-(8-methoxy-[1,2,4]triazolo[1,5-a]pyridin-6-yl)-1-(1-((tetrahydrofuran-3-yl)methyl)piperidin-4-yl)-1,3-dihydro-2H-benzo[d]imidazol-2-one]",5.88
9,"Cc1cc2c(cc1-c1cc(C)c3ncnn3c1)[nH]c(=O)n2[C@H]1CC[C@@H](NCC(C)(C)C)CC1 [Example 32, 6-methyl-5-(8-methyl-[1,2,4]triazolo[1,5-a]pyridin-6-yl)-1-((1s,4s)-4-(neopentylamino)cyclohexyl)-1,3-dihydro-2H-benzo[d]imidazol-2-one]",7.69
10,"Cc1cc2c(cc1-c1cc(C)c3ncnn3c1)[nH]c(=O)n2[C@@H]1CCCN(CC2CCOCC2)C1 [Example 41, (R)-6-methyl-5-(8-methyl-[1,2,4]triazolo[1,5-a]pyridin-6-yl)-1-(1-((tetrahydro-2H-pyran-4-yl)methyl)piperidin-3-yl)-1,3-dihydro-2H-benzo[d]imidazol-2-one]",7.91

# Other lines, results leading:
row,pIC50,Structure (SMILES)
1,8.27,"COc1cc(-c2cc3[nH]c(=O)n([C@@H]4CCCN(CC(C)C)C4)c3cc2C)cn2ncnc12 [Example 56, (R)-1-(1-isobutylpiperidin-3-yl)-5-(8-methoxy-[1,2,4]triazolo[1,5-a]pyridin-6-yl)-6-methyl-1,3-dihydro-2H-benzo[d]imidazol-2-one]"
2,8.17,"CCCN[C@H]1CC[C@@H](n2c(=O)[nH]c3cc(-c4cc(OC)c5ncnn5c4)c(C)cc32)CC1 [Example 64, 5-(8-methoxy-[1,2,4]triazolo[1,5-a]pyridin-6-yl)-6-methyl-1-((1s,4s)-4-(propylamino)cyclohexyl)-1,3-dihydro-2H-benzo[d]imidazol-2-one]"
3,7.17,"COc1cc(-c2cc3[nH]c(=O)n([C@H]4CC[C@@H](NC5COC5)CC4)c3cc2C)cn2ncnc12 [Example 59, 5-(8-methoxy-[1,2,4]triazolo[1,5-a]pyridin-6-yl)-6-methyl-1-((1s,4s)-4-(oxetan-3-ylamino)cyclohexyl)-1,3-dihydro-2H-benzo[d]imidazol-2-one]"
4,5.87,"CCC(CC)CN1CCC(n2c(=O)[nH]c3cc(-c4cc(OC)c5ncnn5c4)ccc32)CC1 [Example 75, 1-(1-(2-ethylbutyl)piperidin-4-yl)-5-(8-methoxy-[1,2,4]triazolo[1,5-a]pyridin-6-yl)-1,3-dihydro-2H-benzo[d]imidazol-2-one]"
5,7.48,"CCC(CC)N1CCC[C@@H](n2c(=O)[nH]c3cc(-c4cc(OC)c5ncnn5c4)c(C)cc32)C1 [Example 67, (R)-5-(8-methoxy-[1,2,4]triazolo[1,5-a]pyridin-6-yl)-6-methyl-1-(1-(pentan-3-yl)piperidin-3-yl)-1,3-dihydro-2H-benzo[d]imidazol-2-one]"
6,7.79,"COc1cc(-c2cc3[nH]c(=O)n([C@H]4CC[C@@H](NC5CCC5)CC4)c3cc2C)cn2ncnc12 [Example 58, 1-((1s,4s)-4-(cyclobutylamino)cyclohexyl)-5-(8-methoxy-[1,2,4]triazolo[1,5-a]pyridin-6-yl)-6-methyl-1,3-dihydro-2H-benzo[d]imidazol-2-one]"
7,6.38,"COc1cc(-c2cc3[nH]c(=O)n([C@@H]4CCCN(CCC(F)(F)F)C4)c3cc2C)cn2ncnc12 [Example 68, (R)-5-(8-methoxy-[1,2,4]triazolo[1,5-a]pyridin-6-yl)-6-methyl-1-(1-(3,3,3-trifluoropropyl)piperidin-3-yl)-1,3-dihydro-2H-benzo[d]imidazol-2-one]"
8,7.53,"CCCN1CCC[C@@H](n2c(=O)[nH]c3cc(-c4cc(OC)c5ncnn5c4)c(C)cc32)C1 [Example 54, (R)-5-(8-methoxy-[1,2,4]triazolo[1,5-a]pyridin-6-yl)-6-methyl-1-(1-propylpiperidin-3-yl)-1,3-dihydro-2H-benzo[d]imidazol-2-one]"
9,7.01,"COc1cc(-c2cc3[nH]c(=O)n([C@@H]4CCCN(C5CCC5)C4)c3cc2C)cn2ncnc12 [Example 69, (R)-1-(1-cyclobutylpiperidin-3-yl)-5-(8-methoxy-[1,2,4]triazolo[1,5-a]pyridin-6-yl)-6-methyl-1,3-dihydro-2H-benzo[d]imidazol-2-one]"
10,7.19,"CCN1CCC[C@@H](n2c(=O)[nH]c3cc(-c4cc(OC)c5ncnn5c4)c(C)cc32)C1 [Example 52, (R)-1-(1-ethylpiperidin-3-yl)-5-(8-methoxy-[1,2,4]triazolo[1,5-a]pyridin-6-yl)-6-methyl-1,3-dihydro-2H-benzo[d]imidazol-2-one]"
11,7.69,"COc1cc(-c2cc3[nH]c(=O)n([C@H]4CC[C@@H](NCC(C)C)CC4)c3cc2C)cn2ncnc12 [Example 61, 1-((1s,4s)-4-(isobutylamino)cyclohexyl)-5-(8-methoxy-[1,2,4]triazolo[1,5-a]pyridin-6-yl)-6-methyl-1,3-dihydro-2H-benzo[d]imidazol-2-one]"
